Values after ≈ are worked out from the molar mass of the structure shown. “Also recorded” adds a separate entry of the source.
Legend:
DDR1 (h) = DDR1 (h) (Homo sapiens (Human), UniProt Q08345); assay: DDR1 kinase inhibition, [γ-33P]-ATP filter assay; format: biochemical
Method: DDR1 (h) was incubated with 8 mM MOPS pH 7.0, 0.2 mM EDTA, 250 μM KKKSPGEYVNIEFG (SEQ ID NO: 1), 10 mM magnesium acetate and [γ-33P]-ATP (specific activity and concentration as required). The reaction was initiated by the addition of the Mg/ATP mix. After incubation for 40 minutes at room temperature, the reaction was stopped by the addition of phosphoric acid to a concentration of 0.5%. An aliquot of the reaction was then spotted onto a filter and washed four times for 4 minutes in 0.425% phosphoric acid and once in methanol prior to drying and scintillation counting.

DDR2 (h) = DDR2 (h) (Homo sapiens (Human), UniProt Q16832); assay: DDR2 kinase inhibition, [γ-33P]-ATP filter assay; format: biochemical
DDR2 (h), sequence (Q16832 22-855): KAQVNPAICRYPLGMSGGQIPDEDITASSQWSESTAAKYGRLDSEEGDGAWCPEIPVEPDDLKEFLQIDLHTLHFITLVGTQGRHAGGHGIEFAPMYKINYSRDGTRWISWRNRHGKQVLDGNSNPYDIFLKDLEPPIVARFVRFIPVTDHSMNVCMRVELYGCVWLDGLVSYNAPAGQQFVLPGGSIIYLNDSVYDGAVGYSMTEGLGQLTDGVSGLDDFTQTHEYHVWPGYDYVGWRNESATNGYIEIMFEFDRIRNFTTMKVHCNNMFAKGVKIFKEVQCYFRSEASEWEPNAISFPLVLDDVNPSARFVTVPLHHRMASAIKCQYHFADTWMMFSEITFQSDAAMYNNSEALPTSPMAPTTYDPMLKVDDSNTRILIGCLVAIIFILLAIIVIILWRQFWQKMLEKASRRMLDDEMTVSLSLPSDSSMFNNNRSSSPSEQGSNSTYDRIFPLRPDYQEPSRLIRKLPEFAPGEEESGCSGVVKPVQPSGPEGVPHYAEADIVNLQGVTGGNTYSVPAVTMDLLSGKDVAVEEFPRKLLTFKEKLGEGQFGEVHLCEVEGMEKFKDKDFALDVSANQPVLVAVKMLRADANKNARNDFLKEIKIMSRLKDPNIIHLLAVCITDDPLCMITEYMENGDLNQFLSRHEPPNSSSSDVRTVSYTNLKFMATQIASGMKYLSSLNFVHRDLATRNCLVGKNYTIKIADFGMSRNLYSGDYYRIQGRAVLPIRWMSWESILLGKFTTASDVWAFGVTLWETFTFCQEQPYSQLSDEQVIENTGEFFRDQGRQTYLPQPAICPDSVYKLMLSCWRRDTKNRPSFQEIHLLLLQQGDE
Method: DDR2 (h) was incubated with 8 mM MOPS pH 7.0, 0.2 mM EDTA, 250 μM KKSRGDYMTMQIG (SEQ TD NO: 2), 10 mM MnCl2, 10 mM magnesium acetate and [γ-33P]-ATP (specific activity and concentration as required). The reaction was initiated by the addition of the Mg/ATP mix. After incubation for 40 minutes at room temperature, the reaction was stopped by the addition of phosphoric acid to a concentration of 0.5%. An aliquot of the reaction was then spotted onto a filter and washed four times for 4 minutes in 0.425% phosphoric acid and once in methanol prior to drying and scintillation counting.

[1] = system: 97 kinases (90 WT kinase and 7 mutants); assay: Kinase selectivity profiling (ScanEDGE, DiscoveRx) competition binding, qPCR readout; details: for Selectivity Score S(1) / Selectivity Score S(10) / Selectivity Score S(35): number of hits/number of assays, excluding mutants, 1000 nM; for # of Hits, S(35) / # of Hits, S(10) / # of Hits, S(1): screened at 1000 nM; for # of Hits, S(35): kinases inhibited by >65%; for # of Hits, S(10): kinases inhibited by >90%; for # of Hits, S(1): kinases inhibited by >99%
Source text: (§1) Compounds that bind the kinase active site and directly (sterically) or indirectly (allosterically) prevent kinase binding to the immobilized ligand, will reduce the amount of kinase captured on the solid support. […] Screening “hits” are identified by measuring the amount of kinase captured in test versus control samples by using a quantitative qPCR method that detects the associated DNA label. Dissociation constants (Kds) for test compound-kinase interactions can be calculated by measuring the amount of kinase captured on the solid support as a function of the test compound concentration.
(§2) Kinase-tagged T7 phage strains were grown in parallel in 24-well blocks in an E. coli host derived from the BL21 strain. E. coli were grown to log-phase and infected with T7 phage from a frozen stock (multiplicity of infection=0.4) and incubated with shaking at 32° C. until lysis (90-150 minutes). The lysates were centrifuged (6,000×g) and filtered (0.2 μm) to remove cell debris. The remaining kinases were produced in HEK-293 cells and subsequently tagged with DNA for qPCR detection. Streptavidin-coated magnetic beads were treated with biotinylated small molecule ligands for 30 minutes at room temperature to generate affinity resins for kinase assays. The liganded beads were blocked with excess biotin and washed with blocking buffer (SeaBlock (Pierce), 1% BSA, 0.05% Tween 20, 1 mM DTT) to remove unbound ligand and to reduce non-specific phage binding. Binding reactions were assembled by combining kinases, liganded affinity beads, and test compounds in 1x binding buffer (20% SeaBlock, […], 0.05% Tween 20, 6 mM DTT). Test compounds were prepared as 40x stocks in 100% DMSO and directly diluted into the assay. All reactions were performed in polypropylene 384-well plates in a final volume of 0.02 mL. The assay plates were incubated at room temperature with shaking for 1 hour and the affinity beads were washed with wash buffer (1×PBS, 0.05% Tween 20). The beads were then re-suspended in elution buffer (1×PBS, 0.05% Tween […] non-biotinylated affinity ligand) and incubated at room temperature with shaking for 30 minutes. The kinase concentration in the eluates was measured by qPCR.
(§3) The compounds were screened at 1000 nM, and results for primary screen binding interactions were determined as “% Ctrl”. % Ctrl=[(test compound signal−positive control signal)/(negative control signal−positive control signal)]*100. Negative control was 100% DMSO. Test compounds were Compounds 1-4. Positive control was a control compound.
Selectivity Score or S-score is a quantitative measure of compound selectivity for DDR2. It was calculated by dividing the number of kinases that compounds bind to by the total number of distinct kinases tested, excluding mutant variants. S=number of hits/number of assays. % Ctrl was used as a potency threshold. Selectivity score values of CS analogs provided in Table 2 reflect the number of kinases inhibited by >65% (S35), >90% (S10), or 99% (S1) by Compounds 1-4.

p38-alpha = p38-alpha (Homo sapiens (Human), UniProt Q16539); assay: Binding to p38-alpha, % of DMSO control (kinase binding screen); details: smaller numbers indicate stronger binding; screened at 1000 nM
p38-alpha, sequence (Q16539 whole entry): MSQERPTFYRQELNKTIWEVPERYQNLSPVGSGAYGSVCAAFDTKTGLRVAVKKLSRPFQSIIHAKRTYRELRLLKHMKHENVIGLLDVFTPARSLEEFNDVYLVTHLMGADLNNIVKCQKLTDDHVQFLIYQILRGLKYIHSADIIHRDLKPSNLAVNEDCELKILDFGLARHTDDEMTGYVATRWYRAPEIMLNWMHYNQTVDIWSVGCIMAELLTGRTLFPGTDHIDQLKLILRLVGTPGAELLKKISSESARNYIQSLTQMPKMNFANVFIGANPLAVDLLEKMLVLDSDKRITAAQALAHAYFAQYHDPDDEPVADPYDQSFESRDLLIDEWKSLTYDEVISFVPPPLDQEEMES
Source text: as §1, §2, §3
Table 3 provides binding affinity scores for p38-alpha as a percent relative to DMSO control. Smaller numbers indicate stronger binding.

[2] = Solubility in pH 7.4 phosphate buffer; format: physicochemical; details: aqueous buffer
Stability in HBSS buffer = format: physicochemical
Stability in plasma = format: in vitro ADME; details: all animals
Caco-2 permeability = format: in vitro ADME; details: human, Caco-2; Bi-directional; read-out: Caco-2 permeability, bidirectional efflux ratio
Caco-2 = Caco-2 permeability; format: in vitro ADME
[3] = Liver S9 stability (SD rat, beagle, human), overall; format: in vitro ADME
Liver S9 stability, rat = format: in vitro ADME; details: SD
[4] = Liver S9 stability, human; format: in vitro ADME
Liver S9 stability, dog = format: in vitro ADME; details: beagle
[5] = Stability in simulated synovial fluid; format: physicochemical
[6] = PK following IV dosing in male SD rats; details: rat, in vivo, IV 1 mg/kg
[7] = system: articular cartilage of mouse knee joints; assay: DMM surgery injurious mouse model of osteoarthritis, knee articular cartilage; format: in vivo; details: for Average articular cartilage score: treatment from 4 weeks after surgery
Method: Based on a pilot experiment,^1 the sample size of minimum 6 is required by the power analysis to achieve the specified confidence interval (95%) with at least 50% reduction of the score in the treatment group. Mouse knee joints were subjected to DMM surgery. Four weeks following the surgery, mice were treated with compound 3. Significant disparity was found in the progression of articular cartilage degeneration in knee joints with or without the treatment of compound 3 (FIG. 1).
The condition of the articular cartilage was also evaluated by the scoring system.^3 At 8 weeks after DMM surgery, the average scores for mice without and with treatment using compound 3 were 2.50 and 1.00, respectively. At 12 weeks following DMM surgery, the average scores were 4.75 for mice not treated with compound 3 and 2.83 for mice treated with compound 3. […] In addition, osteophytes and other abnormal morphology were not observed in the subchondral bone and synovial tissue in mice with or without the treatment with compound 3.

DDR2 = assay: Protein expression of DDR2 in articular cartilage after DMM (staining); format: in vivo, mouse; details: 8 weeks after DMM
Source text: (§4) Inhibitory induction of Ddr2 and Mmp-13 in articular cartilage of knee joints was observed after treatment with the compound 3. The protein expressions of Ddr2 and Mmp-13 were examined in the articular cartilage of mouse knee joints at 8 weeks after DMM, with or without the treatment with compound 3.

Mmp-13 = assay: Protein expression of Mmp-13 in articular cartilage after DMM (staining); format: in vivo, mouse; details: 8 weeks after DMM
Source text: as §4

DDR1 (h), sequence (Q08345 19-913): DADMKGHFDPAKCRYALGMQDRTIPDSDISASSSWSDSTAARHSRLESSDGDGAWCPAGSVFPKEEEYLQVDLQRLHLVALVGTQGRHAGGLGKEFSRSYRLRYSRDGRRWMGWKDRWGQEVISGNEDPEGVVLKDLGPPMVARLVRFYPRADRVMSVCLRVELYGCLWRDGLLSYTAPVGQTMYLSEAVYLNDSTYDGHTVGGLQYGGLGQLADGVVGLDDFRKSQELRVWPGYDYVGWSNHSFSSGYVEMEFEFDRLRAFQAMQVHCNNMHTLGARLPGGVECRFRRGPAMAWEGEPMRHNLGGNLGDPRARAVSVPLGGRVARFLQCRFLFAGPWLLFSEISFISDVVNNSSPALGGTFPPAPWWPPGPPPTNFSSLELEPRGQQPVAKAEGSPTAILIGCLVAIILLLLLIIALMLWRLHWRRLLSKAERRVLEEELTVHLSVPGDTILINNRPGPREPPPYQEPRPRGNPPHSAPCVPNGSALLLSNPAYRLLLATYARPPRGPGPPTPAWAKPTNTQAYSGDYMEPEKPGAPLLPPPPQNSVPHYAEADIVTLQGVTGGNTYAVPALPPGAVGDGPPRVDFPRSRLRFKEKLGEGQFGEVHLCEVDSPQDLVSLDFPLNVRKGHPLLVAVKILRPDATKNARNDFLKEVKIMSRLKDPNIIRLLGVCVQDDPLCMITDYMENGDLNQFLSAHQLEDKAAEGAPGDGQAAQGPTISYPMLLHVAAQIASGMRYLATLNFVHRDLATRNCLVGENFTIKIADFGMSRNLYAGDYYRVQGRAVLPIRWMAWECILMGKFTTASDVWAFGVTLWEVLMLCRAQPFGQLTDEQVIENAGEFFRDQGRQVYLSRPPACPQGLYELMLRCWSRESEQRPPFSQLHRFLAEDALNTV

| Compound | IC50 (DDR1 (h)) [nM] | IC50 (DDR2 (h)) [nM] | Selectivity Score S(1) [1] | Selectivity Score S(10) [1] | Selectivity Score S(35) [1] | # of Hits, S(35) [1] | # of Hits, S(10) [1] | # of Hits, S(1) [1] | Binding affinity score for p38-alpha as percent relative to DMSO control (p38-alpha) [% Ctrl] | solubility [2] [µM] | Stability in HBSS (buffer) (Stability in HBSS buffer) [min in buffer] | Stability in plasma (Stability in plasma) | Caco-2 unidirectional permeability (in words) (Caco-2) | Liver S9 stability (in words) [3] | Stability in simulated synovial fluid [5] [days] | also measured |
| --- | --- | --- | --- | --- | --- | --- | --- | --- | --- | --- | --- | --- | --- | --- | --- | --- |
| Cc1ccc(O)cc1Nc1ccnc(Nc2cccc(S(C)(=O)=O)c2)n1 [Compound 1, 4-methyl-3-[[2-(3-methylsulfonylanilino)pyrimidin-4-yl]amino]phenol] | 13 | 260 | 0.078 | 0.244 | 0.322 | 29 | 22 | 7 | 0.5 | 16 (≈ 5.93 µg/mL) | >120 | >360 min (all | Very high | Rapid clearance | >5 | efflux ratio (Caco-2 permeability): 4.27; half-life (Liver S9 stability, rat): 20 min; half-life [4]: < 10 min; half-life (Liver S9 stability, dog): < 10 min; AUC(0-t) [6]: 122 ng·h/mL; C0 [6]: 548 ng/mL; clearance [6]: 137 mL/min/kg; half-life [6]: 19.1 min; Vd ([6]; read-out: VSS): 2.11 L/kg |
| Cc1ccc(O)cc1Nc1ccnc(Nc2ccc(C(N)=O)cc2)n1 [Compound 2, 4-[[4-(5-hydroxy-2-methyl-anilino)pyrimidin-2-yl]amino]benzamide] | 9 | 156 | 0.033 | 0.089 | 0.244 | 22 | 8 | 3 | 30 | 770 (≈ 258 µg/mL) | >120 | >360 min (all | Very high | Rapid clearance | >5 |  |
| COc1ccc(S(N)(=O)=O)cc1Nc1nccc(N(C)c2ccc(N)cc2)n1 [Compound 3, 3-[[4-(4-amino-N-methyl-anilino)pyrimidin-2-yl]amino]-4-methoxy-benzenesulfonamide] | 55 | > 3300 | 0.056 | 0.089 | 0.178 | 16 | 8 | 5 | 83 | 13.3 (≈ 5.33 µg/mL) | >120 | >360 min (all | Very high | Very stable | >5 | Cartilage damage score, treated versus untreated mice ([7]; 8 and 12 weeks after DMM): significant differences; Morphology of articular cartilage ([7]; 8 weeks after DMM surgery): localized chondrocyte clusters, but no fibrillation; also recorded: only chondrocyte clusters; Average articular cartilage score ([7]; 8 weeks after DMM surgery): 1.00; Morphology of articular cartilage ([7]; 12 weeks after DMM surgery): only localized absence of the proteoglycans; also recorded: only localized proteoglycan degradation; Average articular cartilage score ([7]; 12 weeks after DMM surgery): 2.83; Progressive process of articular cartilage degeneration ([7]; DMM-induced, mouse knee joints): Significant delay; also recorded: dramatically delayed; Osteophytes and other abnormal morphology in subchondral bone and synovial tissue ([7]; mice with or without treatment): not observed; DDR2 positive (stained) cells in articular cartilage (DDR2): dramatically reduced; also recorded: significant reduction; Mmp-13 positive (stained) cells in articular cartilage (Mmp-13): dramatically reduced; also recorded: significant reduction |
| COc1cc(Nc2nccc(Nc3ccc(N)cc3)n2)cc(S(C)(=O)=O)c1 [Compound 4, N4-(4-aminophenyl)-N2-(3-methoxy-5-(methylsulfonyl)phenyl)pyrimidine-2,4-diamine] | 66 | 1570 | 0.022 | 0.122 | 0.233 | 21 | 11 | 2 | 87 | 213 (≈ 82.1 µg/mL) | >120 | >360 min (all |  | Very stable | >5 |  |

Reference: patent US20250177391A1, “INHIBITORS OF DDR1 AND DDR2 FOR THE TREATMENT OF ARTHRITIS” (President and Fellows of Harvard College, priority 2022, published 2025)
